Experimental data from the RepoRT retention time repository (doi:10.1016/j.chroma.2014.05.003).

Assay: RP, Agilent ZORBAX Eclipse Plus C18, 50 × 4.6 mm, 1.8 µm, 0.5 mL/min, estimated dead time 1.1 min; A: water + 0.1% formic acid; B: acetonitrile + 0.1% formic acid; gradient (min/%B) 0/10 3/10 25/100 28/100
Details: stereoisomer not certain

Row | Structure (SMILES) | LC retention time [min]
1 | CC(COc1ccc(Oc2ccccc2)cc1)Oc1ccccn1 (configuration not stated) | 21.2
2 | CC(C)(C)C(O)C(Oc1ccc(-c2ccccc2)cc1)n1cncn1 (configuration not stated) | 16.6
3 | CON=C(C(=O)OC)c1ccccc1COc1ccccc1C | 18
4 | CC(C)NCC(O)COc1ccc(CC(N)=O)cc1 (configuration not stated) | 1.76
5 | CC(C)(C)NCC(O)c1ccc(O)c(CO)c1 (configuration not stated) | 1.63
6 | CNC(=O)Oc1ccc(N(C)C)c(C)c1 | 1.85
7 | O=C(NN=Cc1ccc([N+](=O)[O-])o1)c1ccc(O)cc1 | 9.51
8 | COC(=O)c1ccccc1S(=O)(=O)NC(=O)Nc1nc(C)cc(C)n1 | 12.2
9 | CCOP(=S)(OCC)SCn1nnc2ccccc2c1=O | 17.4
10 | COC1C(O)CC(=O)OC(C)CC=CC=CC(OC2CCC(N(C)C)C(C)O2)C(C)CC(CC=O)C1OC1OC(C)C(OC2CC(C)(O)C(O)C(C)O2)C(N(C)C)C1O (configuration not stated) | 7.59
11 | CN=C(NC#N)NCCSCc1nc[nH]c1C | 1.83
12 | CC(C)N1C(=O)N(c2ccccc2)CSC1=NC(C)(C)C | 18.3
13 | CC(=O)CC(c1ccccc1)c1c(O)c2ccccc2oc1=O (configuration not stated) | 14.9
14 | COC(=O)Nc1nc2ccc(C(=O)c3ccccc3)cc2[nH]1 | 10.7
15 | Cc1cccc(C)c1N | 5.94
16 | COC1C(OC(C)=O)CC(=O)OC(C)CC=CC=CC(O)C(C)CC(CC=O)C1OC1OC(C)C(OC2CC(C)(O)C(OC(=O)CC(C)C)C(C)O2)C(N(C)C)C1O (configuration not stated) | 12
17 | CN1CCC23c4c5ccc(O)c4OC2C(O)C=CC3C1C5 (configuration not stated) | 1.47
18 | CNC(C)Cc1ccc2c(c1)OCO2 (configuration not stated) | 5.39
19 | CNC(=O)ON=CC(C)(C)S(C)(=O)=O | 4.81
20 | CC12CCC3C(=CCc4cc(O)ccc43)C1CCC2=O (configuration not stated) | 14.4
21 | CNC(=O)Oc1ccccc1C(C)C | 13.6

Row | Structure (SMILES) | LC retention time [min]
22 | CCn1cc(C(=O)O)c(=O)c2ccc(C)nc21 | 11.5
23 | CNC(=O)ON=C(C)C(C)SC (configuration not stated) | 9.65
24 | CCOP(=S)(OCC)Oc1ccc(S(C)=O)cc1 (configuration not stated) | 13.5
25 | CC(C)c1ccc(NC(=O)N(C)C)cc1 | 12.9
26 | CCn1cc(C(=O)O)c(=O)c2cnc(N3CCNCC3)nc21 | 4.78
27 | COC(=O)C(C)N(C(=O)Cc1ccccc1)c1c(C)cccc1C (configuration not stated) | 18.1
28 | COc1ccc2c3c1OC1C(O)C=CC4C(C2)N(C)CCC341 (configuration not stated) | 3.16
29 | CNC(=C[N+](=O)[O-])NCCSCc1ccc(CN(C)C)o1 | 2.03
30 | Oc1ccccc1-c1ccccc1 | 16.3
31 | CN(C)C(=O)Nc1ccccc1 | 7.72
32 | CCOC(=O)CC(SP(=S)(OC)OC)C(=O)OCC (configuration not stated) | 17
33 | CNC(C)C(O)c1ccccc1 (configuration not stated) | 2.78
34 | COP(N)(=S)Oc1ccccc1C(=O)OC(C)C (configuration not stated) | 14.9
35 | CN(C)C1CSSSC1 | 2.02
36 | CSC(C)=NOC(=O)N(C)SN(C)C(=O)ON=C(C)SC | 11.8
37 | COc1ccc(Oc2ccc(NC(=O)N(C)C)cc2)cc1 | 13.3
38 | NC(=O)Cc1cccc2ccccc12 | 10
39 | CCCC1CC(C(=O)NC(C(C)O)C2OC(SC)C(O)C(O)C2O)N(C)C1 (configuration not stated) | 3.66
40 | CN(C)c1nc(=O)n(C2CCCCC2)c(=O)n1C | 10.1
41 | CCNC(C)Cc1ccccc1 (configuration not stated) | 5.85
42 | CS(=O)(=O)c1ccc(C(=O)C2C(=O)CCCC2=O)c([N+](=O)[O-])c1 | 12

Row | Structure (SMILES) | LC retention time [min]
43 | CC(C)(C)c1ccc(CCOc2ncnc3ccccc23)cc1 | 22
44 | COC(=O)C1C(OC(=O)c2ccccc2)CC2CCC1N2C (configuration not stated) | 7.3
45 | CON=C(C(=O)NC1C(=O)N2C(C(=O)O)=C(COC(C)=O)CSC12)c1csc(N)n1 (configuration not stated) | 6.29
46 | COP(=O)(NC(C)=O)SC (configuration not stated) | 1.86
47 | CS(=O)(=O)Nc1nc2cc(-c3ccc([N+](=O)[O-])cc3)c([N+](=O)[O-])cc2[nH]c1=O | 11.5
48 | CNC(=O)Oc1cc(C)c(SC)c(C)c1 | 15
49 | CCN(CC)c1nc(C)cc(OP(=S)(OC)OC)n1 | 19
50 | CC(=O)Nc1ccc(O)cc1 | 2.66
51 | CNC(=O)ON=C(C)SC | 5.39
52 | COP(=S)(OC)Oc1ccc(S(=O)(=O)N(C)C)cc1 | 15.3
53 | CCCCCc1cc(O)c2c(c1)OC(C)(C)C1CCC(C(=O)O)=CC21 (configuration not stated) | 19.1
54 | CC(C)N1C(=O)c2ccccc2NS1(=O)=O | 12.7
55 | CNC(=O)Oc1cccc2c1OC(C)(C)C2 | 12.1
56 | CC(C)(c1ccc(O)cc1)c1ccc(O)cc1 | 13.1
57 | CC(Cc1ccc(C(C)(C)C)cc1)CN1CC(C)OC(C)C1 (configuration not stated) | 12.4
58 | CC(C)NCC(O)COc1cccc2ccccc12 (configuration not stated) | 9.19
59 | CCNc1nc(NC(C)C)nc(SC)n1 | 10.4
60 | CCC(C)(CC)c1cc(NC(=O)c2c(OC)cccc2OC)on1 | 16.5
61 | CCC(C)C1OC2(C=CC1C)CC1CC(CC=C(C)C(OC3CC(OC)C(OC4CC(OC)C(NC(C)=O)C(C)O4)C(C)O3)C(C)C=CC=C3COC4C(O)C(C)=CC(C(=O)O1)C34O)O2 (configuration not stated) | 21.2
62 | COCc1cnc(C2=NC(C)(C(C)C)C(=O)N2)c(C(=O)O)c1 (configuration not stated) | 8.04
63 | COCC(=O)N(c1c(C)cccc1C)N1CCOC1=O | 10.9

Row | Structure (SMILES) | LC retention time [min]
64 | CCOP(=O)(OCC)OCC | 9.03
65 | CC(C(=O)O)c1cccc(C(=O)c2ccccc2)c1 (configuration not stated) | 13.7
66 | CCC1OC(=O)C(C)C(OC2CC(C)(OC)C(O)C(C)O2)C(C)C(OC2OC(C)CC(N(C)C)C2O)C(C)(O)CC(C)C(=NOCOCCOC)C(C)C(O)C1(C)O (configuration not stated) | 11.3
67 | Cc1cc(C)c(C2=C(OC(=O)CC(C)(C)C)C3(CCCC3)OC2=O)c(C)c1 | 23.1
68 | c1ccc2[nH]c(-c3cscn3)nc2c1 | 4.54
69 | CCC(C)C(=O)OC1CC(O)C=C2C=CC(C)C(CCC(O)CC(O)CC(=O)O)C21 (configuration not stated) | 10.7
70 | Cc1c(C(C)C)c(=O)n(-c2ccccc2)n1C | 11.9
71 | CN1C(=O)CCC1c1cccnc1 (configuration not stated) | 1.35
72 | CCn1cc(C(=O)O)c(=O)c2cc3c(cc21)OCO3 | 9.71
73 | CCCCc1c(C)nc(NCC)nc1OS(=O)(=O)N(C)C | 14.4
74 | CNC(=O)CSP(=O)(OC)OC | 2.22
75 | CC(N)Cc1ccccc1 (configuration not stated) | 3.82
76 | CCC1CCCC(OC2CCC(N(C)C)C(C)O2)C(C)C(=O)C2=CC3C(C=C(C)C4CC(OC5OC(C)C(OC)C(OC)C5OC)CC43)C2CC(=O)O1 (configuration not stated) | 14.2
77 | COc1nc(NC(C)C)nc(NC(C)C)n1 | 9.02
78 | Cc1ccc(NS(=O)(=O)N(C)C)cc1 | 12.9
79 | NC(N)=Nc1nc(CSCCC(N)=NS(N)(=O)=O)cs1 | 1.81
80 | O=c1oc2ccccc2c(O)c1C1CC(c2ccc(-c3ccccc3)cc2)Cc2ccccc21 (configuration not stated) | 21.7
81 | CSc1nc(NC(C)C)nc(NC(C)C)n1 | 12.1
82 | COC(=O)c1ccc(C)cc1C1=NC(C)(C(C)C)C(=O)N1 (configuration not stated) | 9.12
